{"source": "paper PMC12517324", "about": "“Hyperagonism of a Vitamin D Receptor Agonist/Histone Deacetylase Inhibitor Hybrid Molecule” (Journal of Medicinal Chemistry, 2025)", "test_system": "B16–F10 cells", "assay": "RNaseq gene expression profiling", "type": "cell-based, mouse", "conditions": "RNAseq", "protocol": "AC-340 superinduced CYP24A1 expression in all cell lines tested, and ZG-126 appeared to be a hyperagonist in SK-MEL-28 cells. […] AC-340 treatment produced 3 times more differentially expressed genes (DEGs) than AM-193, with ZG-126 producing an intermediate number (Figure A). […] The varying effects of each treatment on the numbers of regulated genes and the fold changes observed are reflected in plots of log-fold changes and volcano plots (Figure S3B).\nA quality control was performed before sequencing in paired-end at 50 M reads by Illumina NovaSeq 6000 S4 PE100. After sequencing, the FASTQ files were sent to us and all downstream analysis were performed on Galaxy (Galaxy (usegalaxy.org)). First, trimmomatic tool was used to remove the adapters from the reads. Then, using the alignment tool, HISAT2, the reads were mapped to the mouse genome. In the next step, the counted reads were annotated and finally the list of differentially expressed genes (DEGs) for each treatment was obtained using the preinstalled R package called Limma.", "data": [{"smiles": "CCC(CC)(c1ccc(OCCCCCC(=O)NO)cc1)c1ccc(OCC(O)C(C)(C)C)c(C)n1", "note": "(centres unmarked) [AM-193]", "values": [{"measurement": "logFC Acat2", "setting": "gene Acat2, AM193-significant genes", "result": -0.7924}, {"measurement": "logFC Agt", "setting": "gene Agt, AM193-significant genes", "result": -0.9491}, {"measurement": "logFC Aimp2", "setting": "gene Aimp2, AM193-significant genes", "result": -0.7904}, {"measurement": "logFC Alyref", "setting": "gene Alyref, AM193-significant genes", "result": -0.7893}, {"measurement": "logFC Anln", "setting": "gene Anln, AM193-significant genes", "result": -0.751}, {"measurement": "logFC Aurkb", "setting": "gene Aurkb, AM193-significant genes", "result": -0.7442}, {"measurement": "logFC B3galt5", "setting": "gene B3galt5, AM193-significant genes", "result": -0.7772}, {"measurement": "logFC Bhlhe40", "setting": "gene Bhlhe40, AM193-significant genes", "result": -0.9608}, {"measurement": "logFC Birc5", "setting": "gene Birc5, AM193-significant genes", "result": -0.9013}, {"measurement": "logFC Bnip1", "setting": "gene Bnip1, AM193-significant genes", "result": -0.7195}, {"measurement": "logFC Bora", "setting": "gene Bora, AM193-significant genes", "result": -0.8854}, {"measurement": "logFC Brca1", "setting": "gene Brca1, AM193-significant genes", "result": -0.7501}, {"measurement": "logFC Bsn", "setting": "gene Bsn, AM193-significant genes", "result": -0.8525}, {"measurement": "logFC Cad", "setting": "gene Cad, AM193-significant genes", "result": -1.103}, {"measurement": "logFC Calr", "setting": "gene Calr, AM193-significant genes", "result": -0.7283}, {"measurement": "logFC Ccl5", "setting": "gene Ccl5, AM193-significant genes", "result": -0.8403}, {"measurement": "logFC Ccna2", "setting": "gene Ccna2, AM193-significant genes", "result": -0.7214}, {"measurement": "logFC Ccnb1", "setting": "gene Ccnb1, AM193-significant genes", "result": -0.7431}, {"measurement": "logFC Ccnf", "setting": "gene Ccnf, AM193-significant genes", "result": -0.8441}, {"measurement": "logFC Cd3eap", "setting": "gene Cd3eap, AM193-significant genes", "result": -0.7422}, {"measurement": "logFC Cdc6", "setting": "gene Cdc6, AM193-significant genes", "result": -0.8307}, {"measurement": "logFC Cdc20", "setting": "gene Cdc20, AM193-significant genes", "result": -0.7899}, {"measurement": "logFC Cdc25c", "setting": "gene Cdc25c, AM193-significant genes", "result": -0.8576}, {"measurement": "logFC Cdk1", "setting": "gene Cdk1, AM193-significant genes", "result": -0.7282}, {"measurement": "logFC Cdk2", "setting": "gene Cdk2, AM193-significant genes", "result": -0.7948}, {"measurement": "logFC Cenpa", "setting": "gene Cenpa, AM193-significant genes", "result": -0.7639}, {"measurement": "logFC Cenpn", "setting": "gene Cenpn, AM193-significant genes", "result": -0.717}, {"measurement": "logFC Cep152", "setting": "gene Cep152, AM193-significant genes", "result": -0.7072}, {"measurement": "logFC Cse1l", "setting": "gene Cse1l, AM193-significant genes", "result": -0.7192}, {"measurement": "logFC Dctd", "setting": "gene Dctd, AM193-significant genes", "result": -1.041}, {"measurement": "logFC Ddah1", "setting": "gene Ddah1, AM193-significant genes", "result": -1.0571}, {"measurement": "logFC Dhcr24", "setting": "gene Dhcr24, AM193-significant genes", "result": -1.0227}, {"measurement": "logFC Dis3", "setting": "gene Dis3, AM193-significant genes", "result": -0.7516}, {"measurement": "logFC Dkc1", "setting": "gene Dkc1, AM193-significant genes", "result": -0.7246}, {"measurement": "logFC Dnph1", "setting": "gene Dnph1, AM193-significant genes", "result": -0.7927}, {"measurement": "logFC E2f8", "setting": "gene E2f8, AM193-significant genes", "result": -0.7725}, {"measurement": "logFC Egln1", "setting": "gene Egln1, AM193-significant genes", "result": -1.099}, {"measurement": "logFC Elovl6", "setting": "gene Elovl6, AM193-significant genes", "result": -0.8086}, {"measurement": "logFC Eme1", "setting": "gene Eme1, AM193-significant genes", "result": -0.7703}, {"measurement": "logFC Eps8", "setting": "gene Eps8, AM193-significant genes", "result": -0.9363}, {"measurement": "logFC Espl1", "setting": "gene Espl1, AM193-significant genes", "result": -0.8155}, {"measurement": "logFC Exosc6", "setting": "gene Exosc6, AM193-significant genes", "result": -0.7177}, {"measurement": "logFC Exosc8", "setting": "gene Exosc8, AM193-significant genes", "result": -0.7524}, {"measurement": "logFC Fam162a", "setting": "gene Fam162a, AM193-significant genes", "result": -1.049}, {"measurement": "logFC Fam83d", "setting": "gene Fam83d, AM193-significant genes", "result": -0.8732}, {"measurement": "logFC Fasn", "setting": "gene Fasn, AM193-significant genes", "result": -0.7289}, {"measurement": "logFC Fdps", "setting": "gene Fdps, AM193-significant genes", "result": -0.7443}, {"measurement": "logFC Fkbp11", "setting": "gene Fkbp11, AM193-significant genes", "result": -1.012}, {"measurement": "logFC Foxm1", "setting": "gene Foxm1, AM193-significant genes", "result": -0.7084}, {"measurement": "logFC Fubp1", "setting": "gene Fubp1, AM193-significant genes", "result": -0.7875}, {"measurement": "logFC Fut11", "setting": "gene Fut11, AM193-significant genes", "result": -0.7657}, {"measurement": "logFC Gamt", "setting": "gene Gamt, AM193-significant genes", "result": -0.9245}, {"measurement": "logFC Gar1", "setting": "gene Gar1, AM193-significant genes", "result": -0.799}, {"measurement": "logFC Gcat", "setting": "gene Gcat, AM193-significant genes", "result": -1.125}, {"measurement": "logFC Gemin4", "setting": "gene Gemin4, AM193-significant genes", "result": -0.7731}, {"measurement": "logFC Gins1", "setting": "gene Gins1, AM193-significant genes", "result": -0.7214}, {"measurement": "logFC Gjb2", "setting": "gene Gjb2, AM193-significant genes", "result": -0.8099}, {"measurement": "logFC Gm973", "setting": "gene Gm973, AM193-significant genes", "result": -0.7844}, {"measurement": "logFC Grhpr", "setting": "gene Grhpr, AM193-significant genes", "result": -0.8764}, {"measurement": "logFC Grwd1", "setting": "gene Grwd1, AM193-significant genes", "result": -0.9726}, {"measurement": "logFC Gys1", "setting": "gene Gys1, AM193-significant genes", "result": -0.7213}, {"measurement": "logFC H1f3", "setting": "gene H1f3, AM193-significant genes", "result": -0.9967}, {"measurement": "logFC H1f6", "setting": "gene H1f6, AM193-significant genes", "result": -1.042}, {"measurement": "logFC H2ac6", "setting": "gene H2ac6, AM193-significant genes", "result": -0.96}, {"measurement": "logFC H2ac8", "setting": "gene H2ac8, AM193-significant genes", "result": -0.9016}, {"measurement": "logFC H2ac11", "setting": "gene H2ac11, AM193-significant genes", "result": -0.8838}, {"measurement": "logFC H2ac25", "setting": "gene H2ac25, AM193-significant genes", "result": -0.7891}, {"measurement": "logFC H2ax", "setting": "gene H2ax, AM193-significant genes", "result": -0.7149}, {"measurement": "logFC H2bc6", "setting": "gene H2bc6, AM193-significant genes", "result": -0.7735}, {"measurement": "logFC H2bc8", "setting": "gene H2bc8, AM193-significant genes", "result": -0.9803}, {"measurement": "logFC H2bc9", "setting": "gene H2bc9, AM193-significant genes", "result": -1.042}, {"measurement": "logFC H2bc11", "setting": "gene H2bc11, AM193-significant genes", "result": -0.7444}, {"measurement": "logFC H2bc18", "setting": "gene H2bc18, AM193-significant genes", "result": -0.8059}, {"measurement": "logFC H2bu1-ps", "setting": "gene H2bu1-ps, AM193-significant genes", "result": -0.9542}, {"measurement": "logFC H3c1", "setting": "gene H3c1, AM193-significant genes", "result": -0.892}, {"measurement": "logFC H3c6", "setting": "gene H3c6, AM193-significant genes", "result": -0.7599}, {"measurement": "logFC H3c7", "setting": "gene H3c7, AM193-significant genes", "result": -0.9595}]}]}
